Measurements taken from patent US7256024B2, “Tyrissamycin antibiotic” (Bristol-Myers Squibb Company, priority 1998, dated 2007).

Assays:
[1] = tested on: Staphylococcus aureus strain SA1; test: Well-agar diffusion biological assay; assay type: cell-based; settings: sample 5 mg/ml; S. aureus SA1; 7 mm agar wells; fractions of final purification
Protocol: Assays for detection and evaluation of the antibacterial activity of tyrissamycin employ various strains of Staphylococcus aureus. The primary biological assay system consists of S. aureus strain SA1.
SA1 is grown at 37° C. overnight in Antibiotic Assay Broth (BBL, Cockeysville, Md.). The culture is centrifuged at 4000 rpm for 10 minutes and the medium is decanted. Cells are resuspended in 0.9% saline. The culture is adjusted to 25% transmission (600 nm wavelength) using a Coleman Junior Spectrophotometer. This 25% working cell suspension is stored at 4° C. for use as the assay inoculum.
All biological assays employ agar diffusion techniques. Assay agar is Seed Agar (BBL) supplemented after autoclaving with 4% of phosphate-nitrate buffer, pH 7.0, and 0.3% of a 2% solution of triphenyltetrazolium chloride. For well-agar diffusion assays, assay agar is seeded with 1% of the working cell suspension of SA1. The seeded agar is poured into Petri dishes or bioassay trays and allowed to harden. Wells (7 mm diameter) are cut in the agar, and 40 μl sample aliquots are added to the wells. (For some assays, 3 μl of sample are spotted directly on the surface of the agar). Plates are incubated at 37° C. for 18-24 hours, and zones of inhibition (if any) are measured. Inhibition zone sizes correlated with the activity of tyrissamycin in various samples.

Streptococcus pyogenes = test: MIC, microtiter dilution technique; assay type: cell-based; settings: Mueller-Hinton broth, 37° C., 16-24 hours
Protocol: (§1) Tyrissamycin was evaluated in vitro to detemine the minimal inhibitory concentrations (MIC) against seven gram-positive bacteria using the microtiter dilution technique. This method is described by T. B. Conrath, “Handbook of Microtiter Procedures,” Dynatech Corp., Cambridge, Mass., USA (1972); and T. L. Gavan et al “Microdilution Test Procedures,” in Manual of Clinical Microbiology, E. H. Lennette, Ed., American Soc. for Microbiol., Washington, D.C., USA (1980). These tests are performed in accordance with procedures established by the National Committee on Clinical Laboratory Standards (NCCLS). The test procedure is as follows: Each well of a sterile 96-well microdilution tray is filled under aseptic conditions with 0.1 ml of Mueller-Hinton broth. A 0.05-ml sample of the test compound solution is added to a well in the first row of the tray. A microdilutor apparatus is used to simultaneously mix the contents of these wells and to transfer aliquots to each succeeding row of cells to obtain a range of serially diluted solutions. The last row of wells is untreated and serves as a control. Each well containing broth and test compound is inoculated with about ten microliters of inoculum of a given test microorganism. One well in the last row of wells (which is free of test compound) is not inoculated and is used as a sterility control. The trays are sealed and incubated at 37° C. for 16-24 hours.

Streptococcus pneumoniae = test: MIC, microtiter dilution technique; assay type: cell-based; settings: Mueller-Hinton broth, 37° C., 16-24 hours
Protocol: as §1

[2] = tested on: Staphylococcus epidermidis; test: MIC, microtiter dilution technique; assay type: cell-based; settings: Mueller-Hinton broth, 37° C., 16-24 hours
Protocol: as §1

[3] = tested on: Staphylococcus haemolyticus; test: MIC, microtiter dilution technique; assay type: cell-based; settings: Mueller-Hinton broth, 37° C., 16-24 hours
Protocol: as §1

Enterococcus faecalis = test: MIC, microtiter dilution technique; assay type: cell-based; settings: Mueller-Hinton broth, 37° C., 16-24 hours
Protocol: as §1

Enterococcus faecium = test: MIC, microtiter dilution technique; assay type: cell-based; settings: Mueller-Hinton broth, 37° C., 16-24 hours
Protocol: as §1

Staphylococcus aureus = test: MIC, microtiter dilution technique; assay type: cell-based; settings: Mueller-Hinton broth, 37° C., 16-24 hours
Protocol: as §1

Solubility = assay type: physicochemical
Description: A purified sample of tyrissamycin was isolated as a white amorphous powder. […] FIG. 3 (CD3OD) • ^13C-NMR: See FIG. 4 (CD3OD)

In the case of tyrissamycin, the “Inhibition Zone” value [1] is reported as 14.0 mm, the “Minimal Inhibitory Concentration” value (Streptococcus pyogenes) is reported as 4 µg/mL and the “Minimal Inhibitory Concentration” value (Streptococcus pneumoniae) is reported as 4 µg/mL. For the same substance, the “Minimal Inhibitory Concentration” value [2] was 32 µg/mL, the “Minimal Inhibitory Concentration” value [3] was 32 µg/mL and the “Minimal Inhibitory Concentration” value (Enterococcus faecalis) was 32 µg/mL. The “Minimal Inhibitory Concentration” value (Enterococcus faecium) was 64 µg/mL, the “Minimal Inhibitory Concentration” value (Staphylococcus aureus) was 32 µg/mL and the Solubility (Solubility; in chloroform) was “Soluble”. The Solubility (Solubility; in dimethylsulfoxide (DMSO)) was “Soluble”, the Solubility (Solubility; in methanol) was “Soluble” and the Solubility (Solubility; in water) was “practically insoluble”.
